Consider 3 compounds from ChEMBL document CHEMBL1124324, “Rational design of enzyme inhibitors: multisubstrate analogue inhibitors” (J Med Chem, 1989).

As a reminder, the Ki is the dissociation constant of the complex between target and ligand, obtained from inhibition or displacement. The low end stands for tighter binding, the high end for weaker binding.

Structures are written as SMILES.

Sequence of Thymidylate synthase (P04818 whole entry): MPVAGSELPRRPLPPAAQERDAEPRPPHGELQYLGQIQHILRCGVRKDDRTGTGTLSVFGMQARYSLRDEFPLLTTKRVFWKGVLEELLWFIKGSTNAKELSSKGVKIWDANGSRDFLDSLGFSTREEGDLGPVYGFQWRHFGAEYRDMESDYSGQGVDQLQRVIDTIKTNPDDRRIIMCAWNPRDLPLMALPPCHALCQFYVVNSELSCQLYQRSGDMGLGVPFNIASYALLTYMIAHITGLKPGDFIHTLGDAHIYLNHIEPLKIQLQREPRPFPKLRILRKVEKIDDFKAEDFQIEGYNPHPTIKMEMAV

This assay has as its target Thymidylate synthase (Homo sapiens, UniProt P04818). As to the kind of experiment: Inhibition of compound against thymidylate synthetase.
`CN(CC1CNc2nc(N)[nH]c(=O)c2N1Cc1c[nH]c(=O)[nH]c1=O)c1ccc(C(=O)NC(CCC(=O)O)C(=O)O)cc1` (stereo not drawn) displayed a Ki of 750 nM. With `NC1=NC(=O)C2C(=N1)CCC(CNc1ccc(C(=O)NC(CCC(=O)O)C(=O)O)cc1)N2Cc1cn([C@H]2C[C@H](O)[C@@H](COP(=O)(O)O)O2)c(=O)[nH]c1=O` (stereo partly drawn) the figure was 30 nM; with `CN1CCN(Cc2cn([C@H]3C[C@H](O)[C@@H](COP(=O)(O)O)O3)c(=O)[nH]c2=O)c2ccccc21`, 60 nM.
